In patent US20040034336A1, “Charged liposomes/micelles with encapsulted medical compounds” (priority 2002, published 2004):

Experiment: Local delivery of drug in charged liposomes/micelles from a hydrogel-coated metal mesh catheter by iontophoresis
Settings: iontophoresis 5 mA, 8 V, 10 minutes
Protocol: Liposome or micelles were prepared by mixing 3.0 mg of phosphatidylcholine, 3.0 mg of cholesterol and 0.3 mg of phosphatidylserine in a test tube. Chloroform (200 microliters) was added and the solution was evaporated to dryness in a test tube. 7-Amino Actinomycin D (500 mg) was dissolved in 8 mM CaCl2 for a final concentration of 0.5 mg/ml. The 7-Amino Actinomycin D solution was added to the lipid mixture in small aliquots with constant stirring. The hydrogel-coated metal mesh catheter was placed in the 7-amino Actinomycin D/liposome or micelle mixture and then used for drug delivery in the following manner: The hydrogel-coated metal mesh catheter was placed in the 7-Amino Actinomycin D/liposome or micelle mixture and then removed. In some cases, the hydrogel-coated mesh portion of the catheter was covered with a retractable sheath to prevent loss of the compound during the transport of the catheter from the arterial access site to the target site. When the catheter was positioned at the target site the sheath was retracted and the mesh was expanded against the arterial wall. Iontophoersis was performed by applying an electrical current to the mesh. […] In this example the iontophoresis parameters were 5 mA, and 8 V, applied for 10 minutes.

Cc1c2oc3c(C)c(N)cc(C(=O)N[C@@H]4C(=O)N[C@H](C(C)C)C(=O)N5CCC[C@H]5C(=O)N(C)CC(=O)N(C)[C@@H](C(C)C)C(=O)O[C@@H]4C)c3nc-2c(C(=O)N[C@@H]2C(=O)N[C@H](C(C)C)C(=O)N3CCC[C@H]3C(=O)N(C)CC(=O)N(C)[C@@H](C(C)C)C(=O)O[C@@H]2C)c(N)c1=O [7-Amino Actinomycin D]
distribution of the fluorescent compound in the vessel after local delivery (7-Amino Actinomycin D/liposome or micelle mixture (phosphatidylcholine, cholesterol, phosphatidylserine)): throughout the vessel wall and in the outer layer of the vessel | localization in the cells of the vessel after local delivery (7-Amino Actinomycin D/liposome or micelle mixture): evidence of localization of the 7-Amino Actinomycin D in the nuclei of the cells
